Data taken from US4528397A, “Aminocarboxylic acid derivatives” (Sanraku-Ocean Co., Ltd., priority 1982, dated 1985).
Each block holds one compound with its values, some of them ahead of it.

What was measured:
dipeptidase = target: T1, dipeptidase (Rattus norvegicus, UniProt P31430); assay: In vitro inhibition of partially purified rat kidney dipeptidase (spectrophotometric); format: biochemical; details: pH 8.0, 37° C., substrate of Table 1 (glycyldehydrophenylalanine or PS-5) not stated; for inhibition at 100 µM: inhibitor 10^-4 M
T1 construct: from tissue; host or cells: rat kidney, microsome fraction
Method: (1) Purification of dipeptidase
Rats were sacrificed by decapitation, and about 12 g of fresh kidneys were collected. A microsome fraction was obtained by the Hogboom's subcellular fractionating method used on differential centrifugation (Methods in Enzymology, Vol. 1, pages 16-19, Academic Press, New York, 1955). The microsome fraction was treated with 400 μg/ml of trypsin at 0° C. for 16 hours, and then supercentrifugally fractionated at 10^5 G for 60 minutes at 0° C.
The resulting precipitate was suspended in 20 ml of tris-HCl buffer (20 mM, pH 7.6) containing a detergent (0.4% Triton X-100), and then supercentrifugally fractionated at 10^5 G for 60 minutes at 0° C. The supernatant liquid was charged onto a column (15×100 mm) of Sephadex A-50 (Cl-form), and the column was eluted with tris-HCl buffer (20 mM, pH 7.0) containing a detergent (0.4% Triton X-100) with a sodium chloride concentration linear gradient from 0 to 0.5M.
The active fractions were concentrated with polyethylene glycol 4000, and then successively purified by a Sephadex G-150 (25×900 mm) column and a Sephadex G-200 (25×900 mm) column using the same tris-HCl buffer as above to obtain a partially purified sample of the dipeptidase.
(2) Measurement of inhibitory activity
Fifty microliters of the enzyme obtained as above was preincubated together with 30 μl of an inhibitor solution in a cuvette at 37° C. for 5 minutes. Then, 2.82 ml of a solution of glycyldehydrophenylalanine (5.3×10^-5 M) preincubated to 37° C. as a substrate in tris-HCl (0.1M, pH 8.0) was added, and the reaction was started. The reaction was carried out in a cuvette of a Hitachi spectrophotometer equipped with a constant temperature (37° C.) device, and by a recorder, a decrease in the absorbance of the reaction mixture at a wavelength of 275 nm during 5 minutes was measured.
The same experiment as above was carried out using a tris-HCl (pH 8.0) solution of antibiotic PS-5 (1.03 mM) as a substrate, and a decrease in the absorbance of the reaction mixture at a wavelength of 300 nm during 5 minutes was measured.
The percent inhibition and ID50 at a predetermined inhibitor concentration were determined from the measured values obtained as above and that obtained in a control in which no inhibitor was used.

[1] = Coadministration of AEG and antibiotic PS-5: plasma concentration of antibiotic PS-5; format: in vivo, mice (male, ddY); details: for concentration at 5 min / concentration at 0.25 h / concentration at 0.5 h: mouse, plasma, sc, 2 mg
Method: (§1) Coadministration of N-(2-aminoethyl)glycine and antibiiotic PS-5
(§2) To groups of 5 mice each (male, ddY, aged 5 weeks) was orally administered 0.25 ml (20 mg/mouse) of an aqueous solution of N-(2-aminoethyl)glycine (AEG) in a concentration of 80 mg/ml (the solutions had been adjusted to pH 7.5 with 1N HCl). The same volume of pure water was administered to a control group. Thirty minutes later, 0.25 ml of a solution of antibiotic PS-5 Na salt (8 mg/ml) in M/100 PBS (pH 7.0) was subcutaneously administered. Blood was taken from the retroorbital sinus at various time intervals using a heparinized capillary (a thermohematocrit capiratry tube, total length 75 mm, outside diameter 1.45-1.65 mm). One end of the tube was sealed with IATROSEAL® (Iatron Laboratries) and the plasma was separated by centrifugal separation (3000 rpm, 10 minutes). Blood sampling was carried out a total of six times at 0 time (immediately before administration of the antibiotic PS-5) and 5 minutes, 15 minutes, 30 minutes, 60 minutes and 90 minutes after the administration of the antibiotic PS-5. The concentration of the antibiotic PS-5 in the plasma was disc-assayed against Comamonas terrigena B-996.

[2] = Coadministration of AEG and antibiotic PS-5: urinary recovery of antibiotic PS-5; format: in vivo, mice (male, ddY); details: mouse, urine, sc, 2 mg, 0-3 hrs
Method: as §1
as §2, with “The concentration of the antibiotic PS-5 in the plasma was disc-assayed against Comamonas terrigena B-996.” left out
On the other hand, the whole urine of the mice was taken 3 hours after the administration of the antibiotic PS-5, and the concentration of the antibiotic PS-5 in the collected whole urine was assayed by the same method as above. The mean concentrations for five mice was calculated.

T1 sequence (P31430 17-410): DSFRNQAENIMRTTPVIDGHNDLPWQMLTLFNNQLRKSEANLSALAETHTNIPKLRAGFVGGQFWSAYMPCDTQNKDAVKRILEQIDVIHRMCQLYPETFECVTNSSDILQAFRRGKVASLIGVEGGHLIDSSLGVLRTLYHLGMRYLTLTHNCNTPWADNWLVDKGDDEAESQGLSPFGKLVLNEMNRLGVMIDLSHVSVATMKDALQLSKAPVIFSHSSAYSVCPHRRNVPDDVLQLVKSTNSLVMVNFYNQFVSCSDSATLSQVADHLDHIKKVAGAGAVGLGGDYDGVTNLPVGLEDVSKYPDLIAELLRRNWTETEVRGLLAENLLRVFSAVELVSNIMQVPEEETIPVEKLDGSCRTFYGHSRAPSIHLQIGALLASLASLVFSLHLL

inhibition at 100 µM (dipeptidase): 86%
SMILES: NCCNCC(=O)O [Compound 1, N-(2-aminoethyl)glycine]

inhibition at 100 µM (dipeptidase): 15.6%
SMILES: C[C@H](NCCN)C(=O)O [Compound 3, N-(2-aminoethyl)-L-alanine]

inhibition at 100 µM (dipeptidase): 85%
IC50 (dipeptidase; read-out: ID50 (the source's name)): 22 µM
SMILES: N[C@H](CNCC(=O)O)Cc1ccccc1 [Compound 5, (S)-[N-(2-amino-2-benzyl)ethyl]glycine]

inhibition at 100 µM (dipeptidase): 2%
SMILES: NCCSCC(=O)O [Compound 2, (2-aminoethyl)thioacetic acid]

inhibition at 100 µM (dipeptidase): 42.4%
SMILES: C[C@H](N)CNCC(=O)O [Compound 6, (S)-N-(2-aminopropyl)glycine]

inhibition at 100 µM (dipeptidase): 38%
SMILES: NCCN[C@@H](Cc1ccccc1)C(=O)O [Compound 4, N-(2-aminoethyl)-L-phenylalanine]

Concentration of antibiotic PS-5 in the plasma ([1]; AEG administered group (AEG 20 mg/mouse oral, 30 min before PS-5 s.c.), 0 min (immediately before PS-5)): 0 ng/mL
Concentration of antibiotic PS-5 in the plasma ([1]; AEG administered group, 60 min after PS-5 s.c.): 0 ng/mL
Concentration of antibiotic PS-5 in the plasma ([1]; AEG administered group, 90 min after PS-5 s.c.): 0 ng/mL
Concentration of antibiotic PS-5 in the plasma ([1]; Control group (water instead of AEG, then PS-5 s.c.), 0 min (immediately before PS-5)): 0 ng/mL
Concentration of antibiotic PS-5 in the plasma ([1]; Control group (water, PS-5 s.c.), 60 min): 0 ng/mL
Concentration of antibiotic PS-5 in the plasma ([1]; Control group (water, PS-5 s.c.), 90 min): 0 ng/mL
concentration at 5 min ([1]; AEG administered group, 5 min after PS-5 s.c.): 49600 ± 3700 ng/mL
concentration at 0.25 h ([1]; AEG administered group, 15 min after PS-5 s.c.): 21700 ± 2600 ng/mL
concentration at 0.5 h ([1]; AEG administered group, 30 min after PS-5 s.c.): 2300 ± 500 ng/mL
concentration at 5 min ([1]; Control group (water, PS-5 s.c.), 5 min): 52000 ± 4600 ng/mL
concentration at 0.25 h ([1]; Control group (water, PS-5 s.c.), 15 min): 15200 ± 1900 ng/mL
concentration at 0.5 h ([1]; Control group (water, PS-5 s.c.), 30 min): 1000 ± 100 ng/mL
dose excreted at 3 h ([2]; AEG administered group (AEG 20 mg/mouse oral, PS-5 s.c.)): 13.2%
dose excreted at 3 h ([2]; Control group (water, PS-5 s.c.)): 0%
SMILES: CC[C@H]1C(=O)N2C(C(=O)O)=C(SCCNC(C)=O)C[C@H]12 [antibiotic PS-5]
